Experiments:
Assay type in all cases: in vivo
[1] = test system: barnyardgrass (Echinochloa crus-galli); experiment: Test A preemergence, barnyardgrass; conditions: 0 to 100 scale; for Barnyardgrass plant response rating: 0 is no effect, 100 is complete control
Method in brief: (§1)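 Pots of loam–sand mix; preemergence directed soil spray at sowing, postemergence spray at one- to two-leaf stage. Readout: visual injury vs untreated controls, ~10 d, 0–100 scale.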

kochia (Kochia scoparia) [2] = experiment: Test A preemergence, kochia; conditions: 0 to 100 scale; for Kochia plant response rating: 0 is no effect, 100 is complete control
Method in brief: as §1

[3] = test system: ragweed (common ragweed, Ambrosia elatior); experiment: Test A preemergence, ragweed; conditions: 0 to 100 scale; for Ragweed plant response rating: 0 is no effect, 100 is complete control
Method in brief: as §1

[4] = test system: ryegrass, Italian (Lolium multiflorum); experiment: Test A preemergence, Italian ryegrass; conditions: 0 to 100 scale; for Ryegrass, Italian plant response rating: 0 is no effect, 100 is complete control
Method in brief: as §1

[5] = test system: foxtail, giant (Setaria faberii); experiment: Test A preemergence, giant foxtail; conditions: 0 to 100 scale; for Foxtail, Giant plant response rating: 0 is no effect, 100 is complete control
Method in brief: as §1

[6] = test system: pigweed (Amaranthus retroflexus); experiment: Test A preemergence, pigweed; conditions: 0 to 100 scale; for Pigweed plant response rating: 0 is no effect, 100 is complete control
Method in brief: as §1

[7] = test system: barnyardgrass (Echinochloa crus-galli); experiment: Test A postemergence, barnyardgrass; conditions: 0 to 100 scale
Method in brief: as §1

kochia (Kochia scoparia) [8] = experiment: Test A postemergence, kochia; conditions: 0 to 100 scale
Method in brief: as §1

[9] = test system: ragweed (common ragweed, Ambrosia elatior); experiment: Test A postemergence, ragweed; conditions: 0 to 100 scale
Method in brief: as §1

[10] = test system: ryegrass, Italian (Lolium multiflorum); experiment: Test A postemergence, Italian ryegrass; conditions: 0 to 100 scale
Method in brief: as §1

[11] = test system: foxtail, giant (Setaria faberii); experiment: Test A postemergence, giant foxtail; conditions: 0 to 100 scale
Method in brief: as §1

[12] = test system: pigweed (Amaranthus retroflexus); experiment: Test A postemergence, pigweed; conditions: 0 to 100 scale
Method in brief: as §1

[13] = test system: wheat (Triticum aestivum); experiment: Test A postemergence, wheat; conditions: 0 to 100 scale
Method in brief: as §1

corn (Zea mays) = experiment: Test A postemergence, corn; conditions: 0 to 100 scale
Method in brief: as §1

[14] = test system: blackgrass (Alopecurus myosuroides); experiment: Test A postemergence, blackgrass; conditions: 0 to 100 scale
Method in brief: as §1

[15] = test system: galium (catchweed bedstraw, Galium aparine); experiment: Test A postemergence, galium; conditions: 0 to 100 scale
Method in brief: as §1

rice (Oryza sativa) = experiment: Test B flooded paddy test, rice; conditions: Flood, 250 g ai/ha, applied to paddy water, 2-leaf stage, visual evaluation after 13 to 15 d
Method in brief: (§2)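 Application was made into paddy water of pots flooded 3 cm deep at treatment, with seedlings at the 2-leaf stage. That flood level was kept throughout, and plants stayed under glass 13 to 15 d before visual assessment on a 0–100 control scale.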

[16] = test system: sedge, umbrella (small-flower umbrella sedge, Cyperus difformis); experiment: Test B flooded paddy test, umbrella sedge; conditions: Flood, 250 g ai/ha, applied to paddy water, 2-leaf stage, visual evaluation after 13 to 15 d
Method in brief: as §2

[17] = test system: ducksalad (Heteranthera limosa); experiment: Test B flooded paddy test, ducksalad; conditions: Flood, 250 g ai/ha, applied to paddy water, 2-leaf stage, visual evaluation after 13 to 15 d
Method in brief: as §2

[18] = test system: barnyardgrass (Echinochloa crus-galli); experiment: Test B flooded paddy test, barnyardgrass; conditions: Flood, 250 g ai/ha, applied to paddy water, 2-leaf stage, visual evaluation after 13 to 15 d
Method in brief: as §2

[19] = 31 g ai/ha, 0 no effect, 100 complete control
[20] = 125 g ai/ha, 0 no effect, 100 complete control

C[C@@H](Nc1ncc(C(F)(F)F)c(N)n1)c1cc2c(F)ccc(F)c2s1 [Compound 114]
30: Kochia plant response rating (kochia (Kochia scoparia) [2]; 31 g ai/ha) | Ryegrass, Italian plant response rating ([4]; 31 g ai/ha) | Plant response rating, Barnyardgrass [7, 20] | Plant response rating, Wheat [13, 20] | Plant response rating, Corn (corn (Zea mays); [20]) | Plant response rating, Blackgrass [14, 20]
70: Foxtail, Giant plant response rating ([5]; 125 g ai/ha)
40: Barnyardgrass plant response rating ([1]; 125 g ai/ha) | Ragweed plant response rating ([3]; 31 g ai/ha) | Plant response rating, Ragweed [9, 19] | Plant response rating, Ryegrass, Italian [10, 20]
10: Foxtail, Giant plant response rating ([5]; 31 g ai/ha) | Plant response rating, Barnyardgrass [7, 19] | Plant response rating, Foxtail, Giant [11, 19] | Plant response rating, Corn (corn (Zea mays); [19])
90: Plant response rating, Galium [15, 20]
20: Plant response rating, Rice (0 to 100 scale, 0 is no effect, 100 is complete control) (rice (Oryza sativa))
0: Barnyardgrass plant response rating ([1]; 31 g ai/ha) | Plant response rating, Ryegrass, Italian [10, 19] | Plant response rating, Wheat [13, 19] | Plant response rating, Blackgrass [14, 19]
80: Plant response rating, Kochia (kochia (Kochia scoparia) [8]; [20]) | Plant response rating, Ragweed [9, 20] | Plant response rating, Sedge, Umbrella (0 to 100 scale, 0 is no effect, 100 is complete control) [16]
100: Pigweed plant response rating ([6]; 125 g ai/ha) | Plant response rating, Foxtail, Giant [11, 20] | Plant response rating, Pigweed [12, 19] | Plant response rating, Pigweed [12, 20]
50: Ryegrass, Italian plant response rating ([4]; 125 g ai/ha) | Pigweed plant response rating ([6]; 31 g ai/ha) | Plant response rating, Kochia (kochia (Kochia scoparia) [8]; [19])
65: Plant response rating, Ducksalad (0 to 100 scale, 0 is no effect, 100 is complete control) [17] | Plant response rating, Barnyardgrass (0 to 100 scale, 0 is no effect, 100 is complete control) [18]
60: Kochia plant response rating (kochia (Kochia scoparia) [2]; 125 g ai/ha) | Ragweed plant response rating ([3]; 125 g ai/ha) | Plant response rating, Galium [15, 19]

Cc1cc(F)cc(OCC(C)Nc2ncc(C(F)(F)F)c(N)n2)c1 (centres unmarked) [Compound 39]
90: Plant response rating, Barnyardgrass ([1]; 500 g ai/ha) | Plant response rating, Foxtail, Giant ([5]; 500 g ai/ha)
20: Plant response rating, Pigweed ([12]; 125 g ai/ha) | Plant response rating, Corn (corn (Zea mays); 500 g ai/ha)
60: Plant response rating, Pigweed ([12]; 500 g ai/ha)
70: Ragweed plant response rating ([3]; 125 g ai/ha) | Pigweed plant response rating ([6]; 125 g ai/ha) | Plant response rating, Kochia (kochia (Kochia scoparia) [8]; 500 g ai/ha) | Plant response rating, Galium ([15]; 125 g ai/ha) | Plant response rating, Galium ([15]; 500 g ai/ha)
80: Plant response rating, Kochia (kochia (Kochia scoparia) [2]; 500 g ai/ha) | Plant response rating, Pigweed ([6]; 500 g ai/ha)
0: Kochia plant response rating (kochia (Kochia scoparia) [2]; 125 g ai/ha) | Ryegrass, Italian plant response rating ([4]; 125 g ai/ha) | Plant response rating, Barnyardgrass ([7]; 125 g ai/ha) | Plant response rating, Barnyardgrass ([7]; 500 g ai/ha) | Plant response rating, Ragweed ([9]; 125 g ai/ha) | Plant response rating, Ryegrass, Italian ([10]; 125 g ai/ha) | Plant response rating, Foxtail, Giant ([11]; 125 g ai/ha) | Plant response rating, Wheat ([13]; 125 g ai/ha) | Plant response rating, Wheat ([13]; 500 g ai/ha) | Plant response rating, Blackgrass ([14]; 125 g ai/ha) | Plant response rating, Blackgrass ([14]; 500 g ai/ha) | Plant response rating, Rice (0 to 100 scale, 0 is no effect, 100 is complete control) (rice (Oryza sativa)) | Plant response rating, Sedge, Umbrella (0 to 100 scale, 0 is no effect, 100 is complete control) [16] | Plant response rating, Ducksalad (0 to 100 scale, 0 is no effect, 100 is complete control) [17] | Plant response rating, Barnyardgrass (0 to 100 scale, 0 is no effect, 100 is complete control) [18]
40: Barnyardgrass plant response rating ([1]; 125 g ai/ha) | Plant response rating, Kochia (kochia (Kochia scoparia) [8]; 125 g ai/ha) | Plant response rating, Ragweed ([9]; 500 g ai/ha)
10: Plant response rating, Ryegrass, Italian ([4]; 500 g ai/ha) | Plant response rating, Foxtail, Giant ([11]; 500 g ai/ha) | Plant response rating, Corn (corn (Zea mays); 125 g ai/ha)
50: Plant response rating, Ryegrass, Italian ([10]; 500 g ai/ha)
100: Plant response rating, Ragweed ([3]; 500 g ai/ha)

From patent publication US20220119354A1, “DIAMINO-SUBSTITUTED PYRIDINES AND PYRIMIDINES AS HERBICIDES” (FMC Corporation, priority 2019, published 2022)
